Here are results for 39 compounds from patent publication US20050070510A1, “Substituted tetracycline compounds as synergistic antifungal agents” (Paratek Pharmaceuticals, Inc., priority 2001, published 2005).

This data set concerns COS-1 cells. As to the kind of experiment: In vitro mammalian cytotoxicity assay (Resazurin).
For the compound `CCCCOC(=O)Nc1cc(N(C)C)c2c(c1O)C(=O)C1=C(O)[C@]3(C#N)C(=O)C(C(N)=O)=C(O)[C@@H](N(C)C)[C@]3(N)C[C@]1(N)C2` [KI], the “In Vitro Cytotoxicity” value is reported as “** (toxicities less than 25 μg/mL are represented by **)”.

For `Cc1cc(CNCc2cc(N(C)C)c3c(c2O)C(=O)C2=C(O)[C@]4(C#N)C(=O)C(C(N)=O)=C(O)[C@@H](N(C)C)[C@]4(N)C[C@]2(N)C3)[nH]c1C` [SP], the “In Vitro Cytotoxicity” value is listed as “* (toxicities greater than >25 μg/ml are represented by *)”.

With `CC(=O)c1cc(F)c(O)c2c1C[C@@]1(N)C[C@@]3(N)[C@H](N(C)C)C(O)=C(C(N)=O)C(=O)[C@@]3(C#N)C(O)=C1C2=O` [SB], the “In Vitro Cytotoxicity” value was “* (toxicities greater than >25 μg/ml are represented by *)”.

For the compound `CN(C)[C@@H]1C(O)=C(C(N)=O)C(=O)[C@@]2(C#N)C(O)=C3C(=O)c4c(O)ccc(-c5cc6ccccc6o5)c4C[C@@]3(N)C[C@@]12N` [NW], the “In Vitro Cytotoxicity” value is “** (toxicities less than 25 μg/mL are represented by **)”.

Consider `CCc1cncc(-c2ccc(O)c3c2C[C@@]2(N)C[C@@]4(N)[C@H](N(C)C)C(O)=C(C(N)=O)C(=O)[C@@]4(C#N)C(O)=C2C3=O)c1` [UY], for which the “In Vitro Cytotoxicity” value is “** (toxicities less than 25 μg/mL are represented by **)”.

Take `CC(O)CCc1ccc(O)c2c1C[C@@]1(N)C[C@@]3(N)[C@H](N(C)C)C(O)=C(C(N)=O)C(=O)[C@@]3(C#N)C(O)=C1C2=O` (stereo partly drawn) [IW]: the “In Vitro Cytotoxicity” value is “* (toxicities greater than >25 μg/ml are represented by *)”.

With `CCCCC#Cc1cc(N(C)C)c2c(c1O)C(=O)C1=C(O)[C@]3(C#N)C(=O)C(C(N)=O)=C(O)[C@@H](N(C)C)[C@]3(N)C[C@]1(N)C2` [LB], the “In Vitro Cytotoxicity” value is recorded as “** (toxicities less than 25 μg/mL are represented by **)”.

Take `CN(C)c1cc(CNC(=O)Oc2ccc(Br)cc2)c(O)c2c1C[C@@]1(N)C[C@@]3(N)[C@H](N(C)C)C(O)=C(C(N)=O)C(=O)[C@@]3(C#N)C(O)=C1C2=O` [MV]: the “In Vitro Cytotoxicity” value is “** (toxicities less than 25 μg/mL are represented by **)”.

As to `CN(C)c1ccc(-c2ccc3c(c2O)C(=O)C2=C(O)[C@]4(C#N)C(=O)C(C(N)=O)=C(O)[C@@H](N(C)C)[C@]4(N)[C@@H](O)[C@]2(N)[C@H]3O)cc1` [OY], the “In Vitro Cytotoxicity” value is “** (toxicities less than 25 μg/mL are represented by **)”.

For `COc1ccc(CN(C)C)cc1-c1ccc(O)c2c1C[C@@]1(N)C[C@@]3(N)[C@H](N(C)C)C(O)=C(C(N)=O)C(=O)[C@@]3(C#N)C(O)=C1C2=O` [IM], the “In Vitro Cytotoxicity” value is “* (toxicities greater than >25 μg/ml are represented by *)”.

Consider `CCC(=O)O[C@H]1[C@@]2(N)C(=C(O)[C@]3(C#N)C(=O)C(C(N)=O)=C(O)[C@@H](N(C)C)[C@]13N)C(=O)c1c(O)ccc(I)c1[C@@H]2N` [CM], for which the “In Vitro Cytotoxicity” value was “** (toxicities less than 25 μg/mL are represented by **)”.

Consider `CN(C)[C@@H]1C(O)=C(C(N)=O)C(=O)[C@@]2(C#N)C(O)=C3C(=O)c4c(O)ccc(-c5cnccn5)c4C[C@@]3(N)C[C@@]12N` [UX], for which the “In Vitro Cytotoxicity” value is reported as “* (toxicities greater than >25 μg/ml are represented by *)”.

Consider `COc1ccc(-c2ccc3c(c2O)C(=O)C2=C(O)[C@]4(C#N)C(=O)C(C(N)=O)=C(O)[C@@H](N(C)C)[C@]4(N)[C@@H](O)[C@]2(N)[C@H]3N)cc1CN1CCCC1` [PQ], for which the “In Vitro Cytotoxicity” value is listed as “* (toxicities greater than >25 μg/ml are represented by *)”.

Regarding `Cc1ccc(-c2ccc(O)c3c2C[C@@]2(N)C[C@@]4(N)[C@H](N(C)C)C(O)=C(C(N)=O)C(=O)[C@@]4(C#N)C(O)=C2C3=O)cc1` [FR], the “In Vitro Cytotoxicity” value is on record as “** (toxicities less than 25 μg/mL are represented by **)”.

`CC(C)CNCc1ccc2c(c1O)C(=O)C1=C(O)[C@]3(C#N)C(=O)C(C(N)=O)=C(O)[C@@H](N(C)C)[C@]3(N)[C@@H](O)[C@]1(N)[C@H]2N` [RQ]: the “In Vitro Cytotoxicity” value is recorded as “* (toxicities greater than >25 μg/ml are represented by *)”.

`CN(C)[C@@H]1C(O)=C(C(N)=O)C(=O)[C@@]2(C#N)C(O)=C3C(=O)c4c(O)ccc(-c5ccoc5)c4C[C@@]3(N)C[C@@]12N` [EP]: the “In Vitro Cytotoxicity” value is recorded as “** (toxicities less than 25 μg/mL are represented by **)”.

For the compound `COc1ccc2c(c1)cc1c3c(c(O)ccc32)C(=O)C2=C(O)[C@]3(C#N)C(=O)C(C(N)=O)=C(O)[C@@H](N(C)C)[C@]3(N)C[C@@]21N` [OL], the “In Vitro Cytotoxicity” value is on record as “** (toxicities less than 25 μg/mL are represented by **)”.

Regarding `CN(C)[C@@H]1C(O)=C(C(N)=O)C(=O)[C@@]2(C#N)C(O)=C3C(=O)c4c(O)c(-c5cccc6c5OCO6)cc(-c5ccc6c(c5)OCO6)c4[C@H](N)[C@@]3(N)[C@H](O)[C@@]12N` [PU], the “In Vitro Cytotoxicity” value was “** (toxicities less than 25 μg/mL are represented by **)”.

On to `CC(=O)O[C@H]1[C@@]2(N)C(=C(O)[C@]3(C#N)C(=O)C(C(N)=O)=C(O)[C@@H](N(C)C)[C@]13N)C(=O)c1c(ccc(N=[N+]=N)c1O)[C@@H]2N` [DB], for which the “In Vitro Cytotoxicity” value is “** (toxicities less than 25 μg/mL are represented by **)”.

As for `COc1ccc(CNC(C)C)cc1-c1ccc(O)c2c1C[C@@]1(N)C[C@@]3(N)[C@H](N(C)C)C(O)=C(C(N)=O)C(=O)[C@@]3(C#N)C(O)=C1C2=O` [LS], the “In Vitro Cytotoxicity” value is on record as “* (toxicities greater than >25 μg/ml are represented by *)”.

In the case of `CN(C)c1cc(-c2ccc(Cl)c(Cl)c2)c(O)c2c1C[C@@]1(N)C[C@@]3(N)[C@H](N(C)C)C(O)=C(C(N)=O)C(=O)[C@@]3(C#N)C(O)=C1C2=O` [EV], the “In Vitro Cytotoxicity” value is given as “** (toxicities less than 25 μg/mL are represented by **)”.

On to `Cc1ccc(-c2ccc(O)c3c2C[C@@]2(N)C[C@@]4(N)[C@H](N(C)C)C(O)=C(C(N)=O)C(=O)[C@@]4(C#N)C(O)=C2C3=O)cc1N` [PK], for which the “In Vitro Cytotoxicity” value is “** (toxicities less than 25 μg/mL are represented by **)”.

On to `Cc1ccc(-c2ccc(O)c3c2C[C@@]2(N)C[C@@]4(N)[C@H](N(C)C)C(O)=C(C(N)=O)C(=O)[C@@]4(C#N)C(O)=C2C3=O)nc1` [VC], for which the “In Vitro Cytotoxicity” value was “** (toxicities less than 25 μg/mL are represented by **)”.

Take `Cc1ccc(/C=C2\c3cccc(O)c3C(=O)C3=C(O)[C@]4(C#N)C(=O)C(C(N)=O)=C(O)[C@@H](N(C)C)[C@]4(O)[C@@H](O)[C@@]32N)cc1` [CY]: the “In Vitro Cytotoxicity” value is “** (toxicities less than 25 μg/mL are represented by **)”.

In the case of `COC(=O)C(CC(C)C)NCc1ccc(OC)c(-c2ccc(O)c3c2C[C@@]2(N)C[C@@]4(N)[C@H](N(C)C)C(O)=C(C(N)=O)C(=O)[C@@]4(C#N)C(O)=C2C3=O)c1` (stereo partly drawn) [OA], the “In Vitro Cytotoxicity” value is recorded as “** (toxicities less than 25 μg/mL are represented by **)”.

In the case of `CCCCN(c1ccc2c(c1O)C(=O)C1=C(O)[C@]3(C#N)C(=O)C(C(N)=O)=C(O)[C@@H](N(C)C)[C@]3(N)C[C@]1(N)C2)C1CCN(C)CC1` [RY], the “In Vitro Cytotoxicity” value is listed as “* (toxicities greater than >25 μg/ml are represented by *)”.

`CN(C)[C@@H]1C(O)=C(C(N)=O)C(=O)[C@@]2(C#N)C(O)=C3C(=O)c4c(O)ccc(-c5ccc(C(=O)O)c6ccccc56)c4C[C@@]3(N)C[C@@]12N` [NM]: the “In Vitro Cytotoxicity” value was “** (toxicities less than 25 μg/mL are represented by **)”.

Regarding `COc1ccc(CNCc2cccc(F)c2)cc1-c1ccc(O)c2c1[C@H](N)[C@]1(N)C(=C(O)[C@]3(C#N)C(=O)C(C(N)=O)=C(O)[C@@H](N(C)C)[C@]3(N)[C@H]1O)C2=O` [QL], the “In Vitro Cytotoxicity” value is on record as “* (toxicities greater than >25 μg/ml are represented by *)”.

`CN(C)[C@@H]1C(O)=C(C(N)=O)C(=O)[C@@]2(C#N)C(O)=C3C(=O)c4c(ccc(/C=C\C(=O)NC(C)(C)C)c4O)[C@H](N)[C@@]3(N)[C@H](O)[C@@]12N` [JA]: the “In Vitro Cytotoxicity” value is given as “* (toxicities greater than >25 μg/ml are represented by *)”.

`CCCCCOC(=O)NCc1cc(N(C)C)c2c(c1O)C(=O)C1=C(O)[C@]3(C#N)C(=O)C(C(N)=O)=C(O)[C@@H](N(C)C)[C@]3(N)C[C@]1(N)C2` [NF]: the “In Vitro Cytotoxicity” value is on record as “** (toxicities less than 25 μg/mL are represented by **)”.

`Cc1ccc(-c2ccc(O)c3c2C[C@@]2(N)C[C@@]4(N)[C@H](N(C)C)C(O)=C(C(N)=O)C(=O)[C@@]4(C#N)C(O)=C2C3=O)s1` [GJ]: the “In Vitro Cytotoxicity” value is given as “** (toxicities less than 25 μg/mL are represented by **)”.

For the compound `CN(C)[C@@H]1C(O)=C(C(N)=O)C(=O)[C@@]2(C#N)C(O)=C3C(=O)c4c(ccc(Br)c4O)[C@H](N)[C@@]3(N)[C@H](O)[C@@]12N` [CO], the “In Vitro Cytotoxicity” value is “* (toxicities greater than >25 μg/ml are represented by *)”.

As for `CCOC(=O)CNC(=O)c1cccc(-c2cc(N(C)C)c3c(c2O)C(=O)C2=C(O)[C@]4(C#N)C(=O)C(C(N)=O)=C(O)[C@@H](N(C)C)[C@]4(N)C[C@]2(N)C3)c1` [LM], the “In Vitro Cytotoxicity” value was “** (toxicities less than 25 μg/mL are represented by **)”.

Regarding `COC(=O)/C=C/c1cccc(-c2ccc(O)c3c2C[C@@]2(N)C[C@@]4(N)[C@H](N(C)C)C(O)=C(C(N)=O)C(=O)[C@@]4(C#N)C(O)=C2C3=O)c1` [UF], the “In Vitro Cytotoxicity” value is on record as “** (toxicities less than 25 μg/mL are represented by **)”.

For the compound `CN(C)c1cc(-c2ccc(CN3CCN(CCO)CC3)o2)c(O)c2c1C[C@H]1C[C@H]3[C@H](N(C)C)C(O)=C(C(N)=O)C(=O)[C@@]3(O)C(O)=C1C2=O` [Compound UC, 2-[4-(5-Minocyclin-9-yl-furan-2-ylmethyl)-piperazin-1-yl]-ethanol], the “In Vitro Cytotoxicity” value is listed as “* (toxicities greater than >25 μg/ml are represented by *)”.

In the case of `CCC(CC)CCc1ccc(O)c2c1C[C@@]1(N)C[C@@]3(N)[C@H](N(C)C)C(O)=C(C(N)=O)C(=O)[C@@]3(C#N)C(O)=C1C2=O` [GX], the “In Vitro Cytotoxicity” value is given as “** (toxicities less than 25 μg/mL are represented by **)”.

Regarding `COc1cc(-c2ccc(O)c3c2C[C@@]2(N)C[C@@]4(N)[C@H](N(C)C)C(O)=C(C(N)=O)C(=O)[C@@]4(C#N)C(O)=C2C3=O)cc(OC)c1OC` [OK], the “In Vitro Cytotoxicity” value is “** (toxicities less than 25 μg/mL are represented by **)”.

As to `CN(C)c1cc(NC(=O)Nc2cccc3ccccc23)c(O)c2c1C[C@@]1(N)C[C@@]3(N)[C@H](N(C)C)C(O)=C(C(N)=O)C(=O)[C@@]3(C#N)C(O)=C1C2=O` [CF], the “In Vitro Cytotoxicity” value was “** (toxicities less than 25 μg/mL are represented by **)”.

Turning to `CCOc1ccc(-c2ccc(O)c3c2C[C@@]2(N)C[C@@]4(N)[C@H](N(C)C)C(O)=C(C(N)=O)C(=O)[C@@]4(C#N)C(O)=C2C3=O)cc1` [FT], the “In Vitro Cytotoxicity” value is “** (toxicities less than 25 μg/mL are represented by **)”.
